Measured values taken from PubChem BioAssay (NCI).
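GI50 marks 50% less growth. TGI is the concentration that stops growth completely.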

How the values were obtained:
Assay in all cases: NCI tumour cell line growth inhibition, 384-well format
[1] = system: COLO 205 colon
[2] = system: 786-0 renal
[3] = system: SF-539 CNS
[4] = system: MDA-MB-435 melanoma
[5] = system: SK-MEL-28 melanoma
[6] = system: SK-OV-3 ovarian
[7] = system: HL-60(TB) leukemia
[8] = system: T-47D breast
[9] = system: HCC-2998 colon
[10] = system: SR leukemia
[11] = system: SK-MEL-5 melanoma
[12] = system: MOLT-4 leukemia
[13] = system: TK-10 renal
[14] = system: HCT-15 colon
[15] = system: MALME-3M melanoma
[16] = system: HCT-116 colon
[17] = system: SN12C renal
[18] = system: K-562 leukemia
[19] = system: OVCAR-4 ovarian
[20] = system: HOP-92 NSCLC
[21] = system: U251 glioblastoma
[22] = system: SF-268 CNS
[23] = system: SNB-19 CNS
[24] = system: OVCAR-3 ovarian

Structure (SMILES): CC(C)n1cc(-c2ccc3c(c2)N(C)CC3)c2c(NS(=O)(=O)c3ccn(C)n3)ccnc21
- GI50 [1]: > 78.9 µM
- TGI [1]: > 100 µM
- GI50 [2]: > 100 µM
- TGI [2]: > 100 µM
- GI50 [3]: > 100 µM
- TGI [3]: > 100 µM
- GI50 [4]: > 93 µM
- TGI [4]: > 100 µM
- GI50 [5]: > 93.5 µM
- TGI [5]: > 100 µM
- GI50 [6]: > 52.6 µM
- TGI [6]: > 85.4 µM
- GI50 [7]: 33.1 µM
- TGI [7]: > 61.4 µM
- GI50 [8]: 50.9 µM
- TGI [8]: > 100 µM
- GI50 [9]: > 100 µM
- TGI [9]: > 100 µM
- GI50 [10]: 36.5 µM
- TGI [10]: > 100 µM
- GI50 [11]: > 100 µM
- TGI [11]: > 100 µM
- GI50 [12]: 39.1 µM
- TGI [12]: > 100 µM
- GI50 [13]: > 100 µM
- TGI [13]: > 100 µM
- GI50 [14]: 90.6 µM
- TGI [14]: > 100 µM
- GI50 [15]: > 100 µM
- TGI [15]: > 100 µM
- GI50 [16]: > 100 µM
- TGI [16]: > 100 µM
- GI50 [17]: > 100 µM
- TGI [17]: > 100 µM
- GI50 [18]: 53.2 µM
- TGI [18]: > 100 µM
- GI50 [19]: 59.8 µM
- TGI [19]: > 100 µM
- GI50 [20]: > 62.9 µM
- TGI [20]: > 100 µM
- GI50 [21]: 87.1 µM
- TGI [21]: > 100 µM
- GI50 [22]: > 100 µM
- TGI [22]: > 100 µM
- GI50 [23]: > 100 µM
- TGI [23]: > 100 µM
- GI50 [24]: 40.5 µM
